Measurements as given in patent publication US20100273656A1, “COMPOSITION AND METHOD FOR SELECTIVE HERBICIDE” (priority 2002, published 2010).

Experiments:
[1] = system: white clover; experiment: Example 17 iron chelates with Killex, white clover; format: in vivo
Experimental: (§1) Plants were fertilized with an all purpose water-soluble fertilizer mix of 20-20-20 (N-P-K; Plant-Prod®) as needed. All broadleaf weeds were grown individually in a 2¼-inch pot until they were a suitable size for herbicide tests (actual weed size is reported in examples below). Perennial ryegrass was also grown in 2¼-inch pots, however many grass seeds were sown in the pot to simulate a small section of turf. Grass plants were continually trimmed to a height of 4 cm, simulating that of a homeowner's lawn. For field tests, plots ¼ m^2 in size were marked out in areas containing the targeted broadleaf weed species growing in turf grass. Plots were continually mowed to simulate a homeowner's lawn. […] In all of the examples, the amounts of the various herbicide components are identified as a percent on a weight basis.
(§2) Killex® (Scotts Canada, Ltd., Ontario, Canada) is a commonly used selective lawn herbicide and was used as the commercial herbicide for herbicide combinations. The labeled dilution and application rates for Killex® are 6 ml into 1 L of solution (0.6%) applied at 200 ml/m^2.
(§3) All visual plant damage assessments were made using a quantitative rating scale; percent control relative to the untreated check (0=no effect; 100=plant death).
(§4) Materials and Methods: This trial was conducted in the greenhouse. Nine pots of white clover and 10 pots of perennial ryegrass were selected for each treatment. Herbicidal solutions were prepared using deionized water. The treatments were applied using a handheld trigger sprayer at 200 ml/m^2. All treatments were applied once. Phytotoxicity (%) was assessed 4, 7, and 14 days after application (A4, A7, and A14).

[2] = system: dandelions; experiment: Example 4 effect of pH on FeHEDTA, greenhouse dandelions; format: in vivo, Taraxacum officinale; conditions: for Dead (#/10): 8 + 5 days after spraying
Experimental: (§5) The following non-limiting examples serve to further describe the invention. Unless otherwise specified, all of the iron solutions were made using the same molar concentration of iron ion as chelating agent. All of the outside tests were done on areas of mixed grass and dandelions that were at least 2 months old. For the greenhouse tests, dandelions were grown in a commercial greenhouse mix, using supplemental lighting and heating. Each plant was grown in a 2¼ inch pot to a minimum diameter of 20 cm. All of the solutions were sprayed onto the plants at a rate of 100 ml/m^2. The ferrous sulfate formulations that were used in examples 1, 2, 8 and 9 contained 1% iron (180 mM), 18 mM EDTA, 1% citric acid and 0.5% urea. In all of the examples, the amount of iron is identified in brackets as the percent iron on a weight basis.
(§6) All plant damage was assessed using a qualitative rating scale from 0 to 9.
This test compared the effects of FeHEDTA at a range of pH values to potted, greenhouse-grown dandelions. All of the solutions were applied at 0.2% Fe^+3 (35.8 mM). Ammonium sulfate was added at 2%. The plants were re-sprayed after 8 days.

[3] = system: grass; experiment: Example 1 field test of iron chelates, grass damage; format: in vivo; conditions: in vivo
Experimental: as §5, §6
All of the iron chelates were sprayed once at 0.2% Fe^+3 (35.8 mM), at a volume of 100 ml/m^2 onto 0.5 m^2 areas of mixed grass and dandelions. The spraying of the test was followed by 2 days of rain-free weather. Observations were made 5 days after spraying.

[4] = system: white clover; experiment: Example 18 FeHEDTA with Killex, white clover; format: in vivo
Experimental: as §1, §2, §3
as §4, with “Herbicide” for “Herbicidal”, “hand-trigger” for “handheld trigger”

[5] = system: perennial ryegrass; experiment: Example 19 FeHEDTA with Killex at reduced rates, perennial ryegrass; format: in vivo; conditions: Killex ® 0%, 7 days after application
Experimental: as §1, §2, §3
as §4, with “Ten broadleaf plantain plants” for “Nine pots of white clover”, “5” for “10”, “Herbicide” for “Herbicidal”, “hand-trigger” for “handheld trigger”, “7” for “4, 7, and 14”, “(A7).” for “(A4, A7, and A14).”

[6] = system: broadleaf plantain; experiment: Example 19 FeHEDTA with Killex at reduced rates, broadleaf plantain; format: in vivo; conditions: Killex ® 0%, 7 days after application
Experimental: as §1, §2, §3
as §4, with “Ten broadleaf plantain plants” for “Nine pots of white clover”, “5” for “10”, “Herbicide” for “Herbicidal”, “hand-trigger” for “handheld trigger”, “7” for “4, 7, and 14”, “(A7).” for “(A4, A7, and A14).”

[7] = system: turf bentgrass (Agrostis sp.); experiment: Example 11 field test, blackening of bentgrass leaf tips; format: in vivo
Experimental: The product was diluted 6 ml into 1 L of water solution and applied at rate of 200 ml/m^2, as per label instructions.
This test investigated the effect of FeHEDTA and a mixture of FeEDDS and FeMGDA on daisy (Bellis perennis), dandelion (Taraxacum officinale) and a turf bentgrass (Agrostis sp.). The chelating agents were used at one and a half times the molar amount of iron. […] The commercially prepared FeHEDTA product from the Monterey Chemical Company (CA, USA) was used as a standard. […] The solutions were made from NaEDDS (Octaquest E30, Octel) and NaMGDA (Trilon M liquid, BASF, Germany). Ammonium sulfate was added at a concentration of 1%. Killex (Solaris ON, Canada) was diluted and applied as per label instructions of 6 ml/L applied at 200 ml/m^2.
The daisy (0.25 m^2) and dandelion (0.5 m^2) test plots were in different areas of the bentgrass field. The dandelions were large, averaging 30 cm in diameter. The daisy patches were between 10 and 20 cm in diameter. The plants were sprayed weekly 4 times.

## O=C([O-])CN(CCO)CCN(CC(=O)[O-])CC(=O)[O-].[Fe+3] [FeHEDTA]
[1]; A4 = 4 days after application, 0=no effect, 100=plant death
  Phytotoxicity (%) against white clover: 22%
[1]; A7 = 7 days after application
  Phytotoxicity (%) against white clover: 19%
[1]; A14 = 14 days after application
  Phytotoxicity (%) against white clover: 15%
[2]; 8 + 5 days after spraying (re-sprayed after 8 days), listed as FeHEDTA pH 3 (0.2% Fe)
  Plant Damage (0 to 9): 6.8 0 to 9
[2]; 8 + 5 days after spraying (re-sprayed after 8 days), listed as FeHEDTA pH 5 (0.2% Fe)
  Plant Damage (0 to 9): 5.4 0 to 9
[2]; 8 + 5 days after spraying (re-sprayed after 8 days), listed as FeHEDTA pH 7 (0.2% Fe)
  Plant Damage (0 to 9): 5.1 0 to 9
[2]; 8 + 5 days after spraying (re-sprayed after 8 days), listed as FeHEDTA pH 9 (0.2% Fe)
  Plant Damage (0 to 9): 3.6 0 to 9
[2]; 8 + 5 days after spraying (re-sprayed after 8 days), listed as FeHEDTA pH 11 (0.2% Fe)
  Plant Damage (0 to 9): 6.6 0 to 9
[2]; listed as FeHEDTA pH 3 (0.2% Fe)
  Dead (#/10): 5 #/10
[2]; listed as FeHEDTA pH 5 (0.2% Fe)
  Dead (#/10): 3 #/10
[2]; listed as FeHEDTA pH 7 (0.2% Fe)
  Dead (#/10): 2 #/10
[2]; listed as FeHEDTA pH 9 (0.2% Fe)
  Dead (#/10): 1 #/10
[2]; listed as FeHEDTA pH 11 (0.2% Fe)
  Dead (#/10): 5 #/10
[2]; 7 days after spraying, listed as FeHEDTA pH 3 (0.2% Fe)
  Plant Damage (0 to 9): 3.2 0 to 9
[2]; 7 days after spraying, listed as FeHEDTA pH 5 (0.2% Fe)
  Plant Damage (0 to 9): 2.6 0 to 9
[2]; 7 days after spraying, listed as FeHEDTA pH 7 (0.2% Fe)
  Plant Damage (0 to 9): 1.9 0 to 9
[2]; 7 days after spraying, listed as FeHEDTA pH 9 (0.2% Fe)
  Plant Damage (0 to 9): 2.0 0 to 9
[2]; 7 days after spraying, listed as FeHEDTA pH 11 (0.2% Fe)
  Plant Damage (0 to 9): 3.8 0 to 9
[3]
  Grass Damage (0 to 9): 0
[4]; A4
  Phytotoxicity (%) against white clover: 27%
[4]; A7
  Phytotoxicity (%) against white clover: 50%
[4]; A14
  Phytotoxicity (%) against white clover: 18%
[5]; listed as FeHEDTA 0.1% Fe
  A7 Phytotoxicity (%) against perennial ryegrass: 1%
[5]; listed as FeHEDTA 0.2% Fe
  A7 Phytotoxicity (%) against perennial ryegrass: 1%
[5]; listed as FeHEDTA 0.4% Fe
  A7 Phytotoxicity (%) against perennial ryegrass: 2%
[6]; listed as FeHEDTA 0.1% Fe
  A7 Phytotoxicity (%) against broadleaf plantain: 9%
[6]; listed as FeHEDTA 0.2% Fe
  A7 Phytotoxicity (%) against broadleaf plantain: 10%
[6]; listed as FeHEDTA 0.4% Fe
  A7 Phytotoxicity (%) against broadleaf plantain: 22%
[7]; day 1
  Blackening of Bentgrass (Agrostis) Leaf Tips (0 to 9): 0
[7]; day 6
  Blackening of Bentgrass (Agrostis) Leaf Tips (0 to 9): 0
[7]; day 9
  Blackening of Bentgrass (Agrostis) Leaf Tips (0 to 9): 0
[7]; day 16
  Blackening of Bentgrass (Agrostis) Leaf Tips (0 to 9): 2
[7]; day 21
  Blackening of Bentgrass (Agrostis) Leaf Tips (0 to 9): 0.5 0 to 9
[7]; day 23
  Blackening of Bentgrass (Agrostis) Leaf Tips (0 to 9): 0
[7]; day 30
  Blackening of Bentgrass (Agrostis) Leaf Tips (0 to 9): 0
